Like-named read-outs stand apart in the source and are kept apart here.
Tests used:
DP1 = DP1 (Homo sapiens, UniProt Q13258); assay: Eicosanoid receptor DP1 functional assay; assay type: cell-based; details: CHO cells
5-HT2B = 5-HT2B (Homo sapiens, UniProt P41595); assay: Serotonin receptor 5-HT2B binding; details: [^125I](±)DOI, Human recombinant CHO cells, read-out: CR6086 Activity at 10µM
PPARγ = PPARγ (Homo sapiens, UniProt P37231); assay: Nuclear receptor PPARγ binding; details: [^3H]rosiglitazone, Human recombinant E.Coli, read-out: CR6086 Activity at 10µM
PPARγ, sequence (P37231 whole entry): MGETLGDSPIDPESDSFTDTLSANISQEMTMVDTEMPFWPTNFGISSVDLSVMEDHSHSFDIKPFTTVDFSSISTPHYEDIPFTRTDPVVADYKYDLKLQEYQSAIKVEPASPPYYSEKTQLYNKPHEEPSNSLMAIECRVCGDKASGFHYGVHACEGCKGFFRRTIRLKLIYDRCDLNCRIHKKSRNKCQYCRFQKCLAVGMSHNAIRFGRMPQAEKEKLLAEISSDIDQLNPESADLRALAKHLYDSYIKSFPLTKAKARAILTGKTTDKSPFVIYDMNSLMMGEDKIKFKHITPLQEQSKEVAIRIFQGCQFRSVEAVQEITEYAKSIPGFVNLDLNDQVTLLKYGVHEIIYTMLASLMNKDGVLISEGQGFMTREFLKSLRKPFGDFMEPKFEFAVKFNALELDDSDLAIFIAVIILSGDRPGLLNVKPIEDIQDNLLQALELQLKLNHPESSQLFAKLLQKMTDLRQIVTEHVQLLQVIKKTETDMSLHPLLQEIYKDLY

[1] = CR6086 pharmacokinetics in rats; assay type: in vivo, rat; details: for Cmax / AUC / Tmax: rat, plasma, oral; for AUC: read-out: AUC24; for Tmax: median
Description: CR6086 concentrations in rat plasma were determined by high-performance liquid chromatography (Agilent 1200 series; Agilent Technologies, Santa Clara, CA, USA) coupled with a triple-quadrupole mass spectrometer (API 4000 QTRAP; SCIEX, Concord, ON, Canada). A ZORBAX SB-C18 2.0 × 50-mm, 3.5-μm column (Agilent Technologies) in isocratic conditions was used with mobile phase 0.1% formic acid in water/acetonitrile (68:32 vol/vol). The method was linear within the dynamic range 1.0–10,000 ng/ml (lower to upper limit of quantification). CR6086 plasma protein binding was determined in the 0.2–200 μM concentration range using [^14C]CR6086 and equilibrium dialysis. EP4 receptor occupancy (RO) was calculated on the basis of CR6086 concentrations according to the following formula: RO%=Cave/Cave+Ki×100,
The pharmacokinetics of CR6086 were investigated in the animal species used as rheumatoid arthritis models, employing the same administration route and dose range. […] Therefore, for ethical reasons, all pharmacokinetic experiments were conducted in naive animals.

[2] = biological target: Norepinephrine transporter (Homo sapiens, UniProt P23975); assay: Norepinephrine transporter binding; details: [^3H]nisoxetine, Human recombinant CHO cells, read-out: CR6086 Activity at 10µM
Norepinephrine transporter, sequence (P23975 whole entry): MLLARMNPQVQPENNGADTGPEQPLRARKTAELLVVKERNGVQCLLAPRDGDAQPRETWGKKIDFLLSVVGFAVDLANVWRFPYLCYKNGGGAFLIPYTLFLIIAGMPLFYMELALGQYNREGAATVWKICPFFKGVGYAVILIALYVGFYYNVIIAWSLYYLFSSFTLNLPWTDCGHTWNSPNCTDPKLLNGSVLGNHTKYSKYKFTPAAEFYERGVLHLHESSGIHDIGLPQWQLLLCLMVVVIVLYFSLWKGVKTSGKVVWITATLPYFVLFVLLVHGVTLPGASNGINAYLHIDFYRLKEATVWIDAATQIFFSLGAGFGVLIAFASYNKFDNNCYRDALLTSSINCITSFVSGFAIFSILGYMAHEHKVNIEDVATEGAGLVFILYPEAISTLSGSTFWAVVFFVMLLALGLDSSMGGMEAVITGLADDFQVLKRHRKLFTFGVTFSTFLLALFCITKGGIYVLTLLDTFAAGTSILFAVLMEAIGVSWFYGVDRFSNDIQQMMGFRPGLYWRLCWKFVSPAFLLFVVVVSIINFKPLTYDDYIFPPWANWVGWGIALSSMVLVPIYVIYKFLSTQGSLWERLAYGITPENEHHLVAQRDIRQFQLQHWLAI

MC4 = MC4 (Homo sapiens, UniProt P32245); assay: MC4 receptor binding; details: [^125I]NDP-α-MSH, Human recombinant CHO cells, read-out: CR6086 Activity at 10µM
MC4, sequence (P32245 whole entry): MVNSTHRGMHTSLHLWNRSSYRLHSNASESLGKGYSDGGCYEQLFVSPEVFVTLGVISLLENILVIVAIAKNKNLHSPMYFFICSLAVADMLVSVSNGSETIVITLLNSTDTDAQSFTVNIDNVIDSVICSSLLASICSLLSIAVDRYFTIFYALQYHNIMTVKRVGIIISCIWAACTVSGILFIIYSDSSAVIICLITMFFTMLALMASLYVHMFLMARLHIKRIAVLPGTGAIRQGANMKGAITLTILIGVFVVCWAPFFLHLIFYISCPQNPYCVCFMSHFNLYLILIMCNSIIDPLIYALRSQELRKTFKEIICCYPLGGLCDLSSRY

GAL1 = GAL1 (Homo sapiens, UniProt P47211); assay: Galanin receptor GAL1 binding; details: [^125I]galanin, Human recombinant HEK-293 cells, read-out: CR6086 Activity at 10µM
GAL1, sequence (P47211 whole entry): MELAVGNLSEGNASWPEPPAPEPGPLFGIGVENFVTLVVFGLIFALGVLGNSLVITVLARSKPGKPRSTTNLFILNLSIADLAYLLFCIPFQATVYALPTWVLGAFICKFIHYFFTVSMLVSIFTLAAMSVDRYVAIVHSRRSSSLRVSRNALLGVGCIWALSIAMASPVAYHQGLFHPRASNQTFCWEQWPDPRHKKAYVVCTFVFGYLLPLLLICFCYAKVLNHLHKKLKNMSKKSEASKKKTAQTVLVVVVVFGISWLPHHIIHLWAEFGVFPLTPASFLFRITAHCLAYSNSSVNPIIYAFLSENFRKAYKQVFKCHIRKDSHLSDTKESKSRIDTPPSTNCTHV

CysLT2 (Cys-LTs) = CysLT2 (Cys-LTs) (Homo sapiens, UniProt Q9NS75); assay: Eicosanoid receptor CysLT2 binding; details: [^3H]LTD4, HEK-293 cells, read-out: CR6086 Activity at 10µM
CysLT2 (Cys-LTs), sequence (Q9NS75 whole entry, species assumed): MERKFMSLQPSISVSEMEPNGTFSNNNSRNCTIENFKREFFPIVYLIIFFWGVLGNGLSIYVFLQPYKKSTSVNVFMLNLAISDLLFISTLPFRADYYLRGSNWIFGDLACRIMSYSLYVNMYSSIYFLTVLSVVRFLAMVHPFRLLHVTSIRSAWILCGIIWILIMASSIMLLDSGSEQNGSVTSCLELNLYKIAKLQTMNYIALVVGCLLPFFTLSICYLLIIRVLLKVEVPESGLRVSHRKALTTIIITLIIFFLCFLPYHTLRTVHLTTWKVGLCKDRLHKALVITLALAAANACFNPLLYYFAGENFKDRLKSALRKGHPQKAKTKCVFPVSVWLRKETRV

V1a = V1a (Homo sapiens, UniProt P37288); assay: V1a receptor binding; details: [^3H]AVP, Human recombinant CHO cells, read-out: CR6086 Activity at 10µM
V1a, sequence (P37288 whole entry): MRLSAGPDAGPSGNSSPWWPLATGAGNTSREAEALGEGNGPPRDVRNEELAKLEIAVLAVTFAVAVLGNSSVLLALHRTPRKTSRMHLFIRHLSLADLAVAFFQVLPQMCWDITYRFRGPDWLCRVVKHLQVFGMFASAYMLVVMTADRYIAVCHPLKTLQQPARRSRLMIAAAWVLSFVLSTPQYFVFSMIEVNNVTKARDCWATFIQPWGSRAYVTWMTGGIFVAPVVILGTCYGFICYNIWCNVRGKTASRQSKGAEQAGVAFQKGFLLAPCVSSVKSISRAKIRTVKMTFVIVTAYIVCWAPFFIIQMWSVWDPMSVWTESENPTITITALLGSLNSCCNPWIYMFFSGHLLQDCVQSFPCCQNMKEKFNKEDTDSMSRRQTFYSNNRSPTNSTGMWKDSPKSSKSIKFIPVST

DP1, sequence (Q13258 whole entry): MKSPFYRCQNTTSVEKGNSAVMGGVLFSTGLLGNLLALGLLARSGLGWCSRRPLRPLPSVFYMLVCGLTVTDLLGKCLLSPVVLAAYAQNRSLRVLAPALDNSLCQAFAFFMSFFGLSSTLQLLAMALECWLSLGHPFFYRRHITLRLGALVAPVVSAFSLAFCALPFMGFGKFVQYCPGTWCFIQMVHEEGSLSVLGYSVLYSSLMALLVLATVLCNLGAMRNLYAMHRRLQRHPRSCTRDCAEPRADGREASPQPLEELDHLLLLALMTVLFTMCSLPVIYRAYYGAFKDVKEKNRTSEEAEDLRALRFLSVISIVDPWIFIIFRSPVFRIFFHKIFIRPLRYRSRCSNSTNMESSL
5-HT2B, sequence (P41595 whole entry): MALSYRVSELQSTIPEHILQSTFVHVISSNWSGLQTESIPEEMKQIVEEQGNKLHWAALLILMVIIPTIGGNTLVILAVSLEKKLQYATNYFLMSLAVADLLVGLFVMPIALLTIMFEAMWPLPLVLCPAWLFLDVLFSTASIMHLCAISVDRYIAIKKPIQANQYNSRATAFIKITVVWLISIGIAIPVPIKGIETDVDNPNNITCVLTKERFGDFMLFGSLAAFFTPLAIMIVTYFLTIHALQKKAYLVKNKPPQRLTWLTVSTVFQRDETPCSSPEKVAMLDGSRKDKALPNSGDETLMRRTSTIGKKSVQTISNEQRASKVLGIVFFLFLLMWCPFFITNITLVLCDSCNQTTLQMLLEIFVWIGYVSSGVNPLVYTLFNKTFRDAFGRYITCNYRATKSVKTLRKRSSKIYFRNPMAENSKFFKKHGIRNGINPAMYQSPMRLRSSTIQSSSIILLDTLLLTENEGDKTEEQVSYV

**Q.** For `O=C([O-])c1ccc(C2(NC(=O)[C@H]3CC4(CCN3Cc3ccc(C(F)(F)F)cc3)CC4)CC2)cc1.[Na+]` [CR6086, Sodium (R)-4-(1-(6-(4-(trifluoromethyl)benzyl)-6-azaspiro[2.5]octane-5-carboxamido)cyclopropyl)benzoate], which inhibition at 10 µM (DP1; agonist effect, read-out: CR6086 Activity at 10µM) is on record?
**A.** < 20%

**Q.** And the “CR6086 Activity at 10µM” value (DP1; antagonist effect)?
**A.** IN (IN = < 20% displacement or inhibition (all tables))

**Q.** And the inhibition at 10 µM (5-HT2B)?
**A.** < 20%

**Q.** What about the inhibition at 10 µM (PPARγ) of the same compound?
**A.** < 20%

**Q.** What about the “unbound Cave” value ([1]; 3 mg/kg, 24-h dosing interval, single dose) of the same compound?
**A.** 27.6 ng/mL

**Q.** And the “unbound Cave adjusted for the accumulation ratio” value ([1]; 3 mg/kg, repeated doses)?
**A.** 32.8 ng/mL

**Q.** What about the “dose linearity of pharmacokinetics” value ([1]; 1–30 mg/kg oral) of the same compound?
**A.** linear pharmacokinetics

**Q.** What about the oral absorption ([1]; 1–30 mg/kg oral) of the same compound?
**A.** rapidly and completely absorbed

**Q.** And the “accumulation ratio after repeated doses” value ([1]; male rats)?
**A.** 1.19

**Q.** And the Cmax ([1]; 1 mg/kg)?
**A.** 1250 ± 67 ng/mL

**Q.** What about the AUC ([1]; 1 mg/kg, AUC4 for the dose of 1 mg/kg) of the same compound?
**A.** 2170 ± 338 ng·h/mL

**Q.** And the Tmax ([1]; 1 mg/kg)?
**A.** 15 min

**Q.** What about the Cmax ([1]; 3 mg/kg) of the same compound?
**A.** 3230 ± 173 ng/mL

**Q.** What about the Tmax ([1]; 3 mg/kg) of the same compound?
**A.** 15 min

**Q.** And the AUC ([1]; 3 mg/kg)?
**A.** 13700 ± 3990 ng·h/mL

**Q.** And the Cmax ([1]; 10 mg/kg)?
**A.** 14500 ± 3400 ng/mL

**Q.** What about the Tmax ([1]; 10 mg/kg) of the same compound?
**A.** 30 min

**Q.** And the AUC ([1]; 10 mg/kg)?
**A.** 58000 ± 6730 ng·h/mL

**Q.** What about the Cmax ([1]; 15 mg/kg) of the same compound?
**A.** 11900 ± 2040 ng/mL

**Q.** And the Tmax ([1]; 15 mg/kg)?
**A.** 30 min

**Q.** What about the AUC ([1]; 15 mg/kg) of the same compound?
**A.** 61600 ± 10600 ng·h/mL

**Q.** What about the Cmax ([1]; 30 mg/kg) of the same compound?
**A.** 34500 ± 6400 ng/mL

**Q.** And the Tmax ([1]; 30 mg/kg)?
**A.** 60 min

**Q.** What about the AUC ([1]; 30 mg/kg) of the same compound?
**A.** 206000 ± 46000 ng·h/mL

**Q.** And the inhibition at 10 µM [2]?
**A.** < 20%

**Q.** And the inhibition at 10 µM (MC4)?
**A.** < 20%

**Q.** And the inhibition at 10 µM (GAL1)?
**A.** < 20%

**Q.** What about the inhibition at 10 µM (CysLT2 (Cys-LTs)) of the same compound?
**A.** < 20%

**Q.** What about the inhibition at 10 µM (V1a) of the same compound?
**A.** < 20%

Source: publication PMC5831858, “Pharmacological characterisation of CR6086, a potent prostaglandin E2 receptor 4 antagonist, as a new potential disease-modifying anti-rheumatic drug” (Arthritis Research & Therapy, 2018)
